In experiment [1] the test system is P. acnes. The class given is cell-based, Propionibacterium acnes. Particulars: for Frequency of mutation/ml: MIC × 4.
The subject of experiment [2] is P. acnes. Briefly: MIC by agar dilution, Propionibacterium acnes. The class given is cell-based. The conditions noted are these: Cutibacterium acnes. On the procedure:
The strains of P. acnes used were CSS3288, CSS 3023, 998, and 1044 obtained from Luc Dubreuil. P. acnes strains are grown on Brucella blood agar with hemin and vitamin K [1], plates are incubated 48 to 72 hours at 35-37° C. under anaerobic conditions. Brucella blood agar with hemin and vitamin K was prepared as follows: sterile Brucella agar with hemin and vitamin K was tempered to 50-54° C. and the medium was supplemented with 5% lacked horse blood and poured in Petri dishes. Broth cultures are performed in Wilkins-Chalgren broth. All cultures are done under anaerobic conditions in an anaerobic chamber. Agar media was inoculated for single-colony isolation using sterile disposable loops. The MICs of the antibacterial agents was determined by agar dilution. […] Brucella Blood Agar with hemin and vitamin K plates containing series of two-fold dilutions of antibacterial agents were prepared. The base agar was prepared and tempered to 50-54° C. Then the blood supplement and the antibiotics were added and the 7 ml were aseptically poured into six-well culture plates. Once the agar had solidified it was transferred into the anaerobe chamber for 24 hours before use to allow for pre-reduction. Twenty-five microliters of P. acnes culture containing 10^6 CFU of were spotted in each well. The plates were incubated anaerobically for 72 hours at 35-37° C. The MIC is the lowest concentration that inhibits growth of P. acnes.

The mark [3] stands for this setting: P. acnes, agar dilution, anaerobic, 72 hours, read-out: MIC.

Molecules are shown by their SMILES. In brackets after ≈: the same amount, converted by molar mass. Like-named read-outs stand apart in the source and are kept apart here.

The record followed here is US12036312B2, “Non-aqueous topical compositions comprising a halogenated salicylanilide” (priority 2016, dated 2024).

As for `C=C[C@]1(C)C[C@@H](OC(=O)CS[C@@H]2C[C@H]3CC[C@@H](C2)N3C)[C@]2(C)[C@H](C)CC[C@]3(CCC(=O)[C@H]32)[C@@H](C)[C@@H]1O` [Retapamulin, retapamulin], the “frequency of mutation of resistance” value in the experiment with P. acnes [1] (P. acnes) is recorded as ~1×10^−8. Further, the Frequency of mutation/ml stood at 2.17e-08 mL⁻¹ in the experiment with P. acnes [1] (P. acnes strain 998), 1.09e-08 mL⁻¹ in the experiment with P. acnes [1] (P. acnes strain 1044), 1.46e-08 mL⁻¹ with P. acnes [1] (P. acnes strain CSS3023) and 1.25e-08 mL⁻¹ in the experiment on P. acnes [1] (P. acnes strain CSS3288). This molecule registered a minimum inhibitory concentration (MIC) in the experiment with P. acnes [2] (72 h) of 0.016 µg/mL (≈ 0.0309 µM).
With `O=C(Nc1ccc([N+](=O)[O-])cc1Cl)c1cc(Cl)ccc1O` [Niclosamide, niclosamide], the “frequency of mutation of resistance” value in the experiment with P. acnes [1] (P. acnes) is on record as “less than 1×10^−9”. Moreover, in the experiment with P. acnes [1] (P. acnes), the “frequency of mutation, times lower than the two comparator compounds fusidic acid and retapamulin” value is recorded as “at least 10 times”. For the same molecule, the Frequency of mutation/ml in the experiment with P. acnes [1] (P. acnes strain 998) is under 2.5e-09 mL⁻¹; with P. acnes [1] (P. acnes strain 1044) it was under 1.92e-08 mL⁻¹; in the experiment on P. acnes [1] (P. acnes strain CSS3023) it was under 4.55e-09 mL⁻¹; in the experiment on P. acnes [1] (P. acnes strain CSS3288), under 2.7e-09 mL⁻¹. Further, the MIC with P. acnes [2] (setting [3]) turned out to be 0.5 µg/mL (≈ 1.53 µM).
Consider `CC(=O)O[C@H]1C[C@@]2(C)[C@@H](C[C@@H](O)[C@H]3[C@@]4(C)CC[C@@H](O)[C@@H](C)[C@@H]4CC[C@@]32C)/C1=C(\CCC=C(C)C)C(=O)O` [Fusidic acid, fusidic acid], for which, in the experiment on P. acnes [1] (P. acnes), the “frequency of mutation of resistance” value is ~1×10^−8. For the same molecule, the Frequency of mutation/ml with P. acnes [1] (P. acnes strain 998) amounted to 9.17e-08 mL⁻¹; in the experiment with P. acnes [1] (P. acnes strain 1044) it was 7.21e-08 mL⁻¹; in the experiment on P. acnes [1] (P. acnes strain CSS3023), 1.82e-08 mL⁻¹; in the experiment on P. acnes [1] (P. acnes strain CSS3288) it was 6.15e-08 mL⁻¹. Further, the MIC with P. acnes [2] (setting [3]) was 4 µg/mL (≈ 7.74 µM).

By MIC is commonly meant the least concentration at which growth counts as inhibited.
